Laboratory results taken from publication doi:10.1101/2023.11.24.568596v1 (biorxiv, 2023).
Values belong to the compound of their own block, whether it stands above or below them.

How the values were obtained:
Settings in all cases: binder
MER = molecular target: T1, MER (Homo sapiens, UniProt Q12866)
T1 sequence (Q12866 1-999): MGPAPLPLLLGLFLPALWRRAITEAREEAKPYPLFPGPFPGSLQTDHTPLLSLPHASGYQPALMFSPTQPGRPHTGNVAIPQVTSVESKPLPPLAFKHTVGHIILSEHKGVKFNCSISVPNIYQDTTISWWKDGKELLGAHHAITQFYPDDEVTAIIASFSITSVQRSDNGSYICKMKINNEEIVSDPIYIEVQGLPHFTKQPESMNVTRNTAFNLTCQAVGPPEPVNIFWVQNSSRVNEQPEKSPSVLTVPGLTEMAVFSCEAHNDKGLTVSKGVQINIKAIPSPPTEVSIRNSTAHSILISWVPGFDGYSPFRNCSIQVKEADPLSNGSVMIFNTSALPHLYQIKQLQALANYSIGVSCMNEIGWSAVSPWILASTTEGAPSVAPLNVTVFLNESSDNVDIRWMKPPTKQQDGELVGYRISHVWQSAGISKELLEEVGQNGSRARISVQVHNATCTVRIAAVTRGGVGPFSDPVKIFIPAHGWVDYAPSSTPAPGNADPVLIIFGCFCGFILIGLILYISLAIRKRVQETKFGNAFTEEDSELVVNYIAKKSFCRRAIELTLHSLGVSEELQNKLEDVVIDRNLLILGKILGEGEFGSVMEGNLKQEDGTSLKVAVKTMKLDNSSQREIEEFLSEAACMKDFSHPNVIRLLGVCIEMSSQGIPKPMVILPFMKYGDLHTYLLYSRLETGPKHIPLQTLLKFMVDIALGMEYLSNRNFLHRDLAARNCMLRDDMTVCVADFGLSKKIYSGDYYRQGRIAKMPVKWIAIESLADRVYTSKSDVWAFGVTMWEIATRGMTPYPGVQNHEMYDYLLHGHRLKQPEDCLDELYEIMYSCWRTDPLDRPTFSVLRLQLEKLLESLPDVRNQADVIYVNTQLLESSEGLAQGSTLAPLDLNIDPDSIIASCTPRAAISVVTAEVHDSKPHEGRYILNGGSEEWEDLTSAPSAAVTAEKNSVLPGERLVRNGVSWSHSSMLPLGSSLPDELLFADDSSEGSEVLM

PLK4 = molecular target: T2, PLK4 (Homo sapiens, UniProt O00444)
T2 sequence (O00444 1-970): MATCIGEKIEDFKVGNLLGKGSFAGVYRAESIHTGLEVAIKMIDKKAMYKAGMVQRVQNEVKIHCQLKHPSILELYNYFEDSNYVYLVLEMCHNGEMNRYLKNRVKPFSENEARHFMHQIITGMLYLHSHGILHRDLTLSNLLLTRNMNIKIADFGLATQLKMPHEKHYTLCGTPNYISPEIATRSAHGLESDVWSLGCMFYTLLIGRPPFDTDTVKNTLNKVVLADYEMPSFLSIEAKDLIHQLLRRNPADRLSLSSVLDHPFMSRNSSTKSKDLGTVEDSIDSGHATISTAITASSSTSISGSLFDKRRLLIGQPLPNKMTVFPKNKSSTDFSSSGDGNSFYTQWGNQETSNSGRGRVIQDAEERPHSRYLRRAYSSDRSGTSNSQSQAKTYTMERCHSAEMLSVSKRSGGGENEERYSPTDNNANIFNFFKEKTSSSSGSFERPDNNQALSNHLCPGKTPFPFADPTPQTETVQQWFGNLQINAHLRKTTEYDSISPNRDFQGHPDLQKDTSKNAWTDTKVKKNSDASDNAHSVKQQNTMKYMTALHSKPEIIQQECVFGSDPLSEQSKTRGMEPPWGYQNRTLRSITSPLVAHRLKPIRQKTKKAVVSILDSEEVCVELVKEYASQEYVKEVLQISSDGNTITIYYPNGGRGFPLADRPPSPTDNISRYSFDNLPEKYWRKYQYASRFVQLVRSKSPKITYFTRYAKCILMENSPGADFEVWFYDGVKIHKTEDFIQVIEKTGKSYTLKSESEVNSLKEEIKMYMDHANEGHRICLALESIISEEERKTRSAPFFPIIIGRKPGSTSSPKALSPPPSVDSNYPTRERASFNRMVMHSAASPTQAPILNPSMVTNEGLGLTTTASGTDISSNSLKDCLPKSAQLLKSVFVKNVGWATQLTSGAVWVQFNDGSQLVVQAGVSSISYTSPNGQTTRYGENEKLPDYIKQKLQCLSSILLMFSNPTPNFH

CHK2 = CHK2 (Homo sapiens, UniProt O96017)
CHK2, sequence (O96017 whole entry): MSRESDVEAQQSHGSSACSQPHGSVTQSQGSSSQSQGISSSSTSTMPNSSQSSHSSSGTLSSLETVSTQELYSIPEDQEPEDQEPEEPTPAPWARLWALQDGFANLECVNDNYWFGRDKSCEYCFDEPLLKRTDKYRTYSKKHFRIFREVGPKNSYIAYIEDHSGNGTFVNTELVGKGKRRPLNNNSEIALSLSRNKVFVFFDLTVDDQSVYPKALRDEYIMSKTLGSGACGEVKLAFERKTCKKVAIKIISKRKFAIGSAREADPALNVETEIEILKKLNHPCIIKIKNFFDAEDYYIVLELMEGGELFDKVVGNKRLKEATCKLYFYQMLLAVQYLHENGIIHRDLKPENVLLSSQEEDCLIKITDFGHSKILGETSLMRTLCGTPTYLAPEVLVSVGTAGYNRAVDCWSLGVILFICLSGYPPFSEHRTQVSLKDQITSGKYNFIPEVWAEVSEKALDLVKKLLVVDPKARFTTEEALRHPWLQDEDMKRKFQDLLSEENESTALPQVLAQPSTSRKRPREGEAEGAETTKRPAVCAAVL

PCTAIRE1 = PCTAIRE1 (Homo sapiens, UniProt Q00536)
PCTAIRE1, sequence (Q00536 whole entry): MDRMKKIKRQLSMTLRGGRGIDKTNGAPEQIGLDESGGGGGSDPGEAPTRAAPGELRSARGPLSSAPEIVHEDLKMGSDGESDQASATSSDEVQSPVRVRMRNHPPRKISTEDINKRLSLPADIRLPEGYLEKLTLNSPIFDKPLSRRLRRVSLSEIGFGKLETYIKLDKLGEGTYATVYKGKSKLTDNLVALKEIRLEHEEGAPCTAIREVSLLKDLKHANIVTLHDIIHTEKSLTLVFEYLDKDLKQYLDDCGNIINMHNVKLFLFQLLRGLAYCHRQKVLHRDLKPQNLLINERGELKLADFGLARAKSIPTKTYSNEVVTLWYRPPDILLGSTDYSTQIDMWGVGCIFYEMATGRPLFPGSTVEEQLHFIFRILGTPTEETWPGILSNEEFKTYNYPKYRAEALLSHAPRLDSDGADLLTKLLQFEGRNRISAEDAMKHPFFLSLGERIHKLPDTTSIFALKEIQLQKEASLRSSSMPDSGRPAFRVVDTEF

ΔTm MRLW5 (20) (MER): 2.5 °C
ΔTm MRLW5 (20) (PLK4): 5.2 °C
ΔTm MRLW5 (20) (CHK2): 2.8 °C
ΔTm MRLW5 (20) (PCTAIRE1): 2.3 °C
SMILES: CNc1ncc2cc(-c3ccc(-c4cccc(C)n4)cc3Cl)c(=O)n(CCCCN)c2n1 [compound 20, MRLW5]

ΔTm MR24 (24) (MER): -0.7 °C
ΔTm MR24 (24) (PLK4): 1.3 °C
ΔTm MR24 (24) (CHK2): 2.0 °C
ΔTm MR24 (24) (PCTAIRE1): 1.7 °C
SMILES: Cc1cccc(-c2ccc(-c3cc4cnc(NC(CO)CO)nc4n(CCCCN)c3=O)c(Cl)c2)n1 [compound 24, 8-(4-Aminobutyl)-6-(2-chloro-4-(6-methylpyridin-2-yl)phenyl)-2-((1,3-dihydroxypropan-2-yl)amino)pyrido[2,3-d]pyrimidin-7(8H)-one]

ΔTm 23 (MER): 3.1 °C
ΔTm 23 (PLK4): 7.1 °C
ΔTm 23 (CHK2): 4.6 °C
ΔTm 23 (PCTAIRE1): 4.4 °C
SMILES: CNc1ncc2cc(-c3ccc(-c4cccc(C)n4)cc3Cl)c(=O)n(C[C@H]3CC[C@H](N)CC3)c2n1 [compound 23, 23]

ΔTm 25 (MER): 1.6 °C
ΔTm 25 (PLK4): 6.7 °C
ΔTm 25 (CHK2): 8.5 °C
ΔTm 25 (PCTAIRE1): 4.5 °C
SMILES: Cc1cccc(-c2ccc(-c3cc4cnc(NCCCc5ccc(N)cc5)nc4n(CCCCN)c3=O)c(Cl)c2)n1 [compound 25, 8-(4-Aminobutyl)-2-((3-(4-aminophenyl)propyl)amino)-6-(2-chloro-4-(6-methylpyridin-2-yl)phenyl)pyrido[2,3-d]pyrimidin-7(8H)-one]

ΔTm MR26 (26) (MER): 1.0 °C
ΔTm MR26 (26) (PLK4): 5.1 °C
ΔTm MR26 (26) (CHK2): 3.3 °C
ΔTm MR26 (26) (PCTAIRE1): 1.8 °C
SMILES: Cc1cccc(-c2ccc(-c3cc4cnc(NCCCN5CCOCC5)nc4n(CCCCN)c3=O)c(Cl)c2)n1 [compound 26, MR26]

ΔTm 22 (MER): 2.6 °C
ΔTm 22 (PLK4): 7.3 °C
ΔTm 22 (CHK2): 3.0 °C
ΔTm 22 (PCTAIRE1): 3.0 °C
SMILES: CNc1ncc2cc(-c3ccc(-c4cccc(C)n4)cc3Cl)c(=O)n(CCC3CCNCC3)c2n1 [compound 22, 6-(2-Chloro-4-(6-methylpyridin-2-yl)phenyl)-2-(methylamino)-8-(2-(piperidin-4-yl)ethyl)pyrido[2,3-d]pyrimidin-7(8H)-one]
